Measured values as given in patent US5284838A, “Use of 2,2-dimethylchroman-3-ol derivatives in the treatment of asthma” (Elf Sanofi, priority 1987, dated 1994).
pIC50: −log10 of the molar value. Like-named read-outs stand apart in the source and are kept apart here.

Tests used:
mice = assay: Acute toxicity on mice by oral administration; assay type: in vivo; details: 1000 mg/kg, 10 mice
[1] = tested on: Guinea-pig Papillary Muscle; assay: Guinea-pig Papillary Muscle: ventricular action potential; assay type: cell-based, Male Albino Charles River guinea-pigs; details: Cavia porcellus, 0.5 h; 36° C., 60 beats per minute, 30 minutes of perfusion per concentration; read-out: Duration of the action potential: IC50 (50 per cent reduction in the duration of the AP)
Experimental: Male Albino Charles River guinea-pigs (300-400 g) are stunned and then bled after their throats have been cut. The heart is isolated and opened and the right papillary muscle is excised and then kept alive in an experimental cell containing a physiological solution at 36° C. (composition described above).
The preparation is stimulated with the aid of a bipolar electrode connected to a stimulator (frequency=60 beats per minute). The ventricular action potential is measured by the conventional microelectrode method. The characteristic parameters were measured on the action potentials (AP) before and after the introduction of the test product at 3 successive increasing concentrations (30 minutes of perfusion per concentration). The concentration which produces a 50 per cent reduction in the duration of the AP is indicated (IC50).

[2] = tested on: Vigilant Spontaneously Hypertensive Rats (SHR); assay: Antihypertensive Activity on Vigilant Spontaneously Hypertensive Rats (SHR); assay type: in vivo, male SHR (of the Wistar strain) rats; details: for duration of action compared with Product A: p.o.
Experimental: The experiment is performed on male SHR (of the Wistar strain) aged between 11 and 12 weeks; under pentobarbital anesthesia, a catheter is implanted in a carotid artery on the day before the experiment. In the experiment, the diastolic pressure (DP) and systolic pressure (SP) of the vigilant animals are recorded continuously 1 hour before and up to 2 hours after administration of the product. The heart rate (HR) is determined from the pulse pressure and recorded continuously for the same time.
The products were administered orally in a volume of 2 ml per 100 g of body weight after suspension in a 5% aqueous solution of gum arabic.

Isolated Rat Portal Vein = assay: Isolated Rat Portal Vein: inhibition of spontaneous contractile activities; assay type: cell-based, Male Sprague Dawley rats; details: for pIC50: Rattus norvegicus, 0.25 h; for times more active than Product A: relative to Product A, isolated rat portal vein
Experimental: Male Sprague Dawley rats (250-300 g) are stunned and then bled after their throats have been cut. The portal vein, ligated in situ at two points 15 mm apart, is isolated, cut longitudinally and then mounted vertically in an experimental cell containing a physiological solution, at 37° C., of the following composition (mmol/l): NaCl:137; KCl: 5.4; MgCl2 : 1.05; CaCl2 : 1.8; NaH2 PO4 : 1.2; NAHCO3 : 15.5; glucose: 11.5, into which a mixture of gases containing 95% of oxygen and 5% of carbon dioxide is bubbled.
The vein is subjected to a tension of 500 mg. After a period of stabilization (about 1 h 30 min), the spontaneous contractile activities are recorded with the aid of an isometric sensor. Each measurement is performed successively on 4 preparations.
The results are expressed in the form of the molar concentration which causes a 50 per cent inhibition of the spontaneous contractile activities (IC50).

Vigilant Dogs = assay: Antiarrhythmic Activity on Vigilant Dogs; assay type: in vivo; details: orally
Experimental: The method used is that described by Dupuis et al. (Br. J. Pharmacol., 1976, 58, p. 409), in which an acute infarction is caused by the insertion of a copper spiral into the coronary circulation, with the thorax closed off. The electrocardiogram is measured by telemetry and the extrasystoles are analyzed and counted automatically while the animal is being monitored by an internal television circuit. The products were administered orally to animals presenting at least 50 percent of extrasystoles.

[3] = 37° C., 15 min per concentration, read-out: IC50 of the spontaneous contractile activities of isolated rat portal vein
[4] = unit inferred, read-out: IC50 values equal to or less than (isolated rat portal vein)

| pIC50 (Isolated Rat Portal Vein; [3]) | pIC50 (Isolated Rat Portal Vein; [4]) | Compound | pIC50 [1] | Maximum decrease in mean blood pressure (±s.e.) ([2]; 0.03 mg/kg p.o.) | Maximum decrease in mean blood pressure (±s.e.) ([2]; 0.10 mg/kg p.o.) | times more active than Product A (Isolated Rat Portal Vein) | also measured |
| --- | --- | --- | --- | --- | --- | --- | --- |
| 6.89 |  | CC1(C)Oc2ccc(C#N)cc2[C@@H](n2ncccc2=O)[C@@H]1O (relative stereo) [SR 44 758, trans-6-Cyano-4-(1,6-dihydro-6-oxopyridazin-1-yl)-2,2-dimethylchroman-3-ol] |  | 12 ± 2 mm of mercury | 33 ± 5 mm of mercury |  |  |
| 7.47 | ≥ 7.47 | CC1(C)Oc2ccc(C#N)cc2[C@@H](n2ccc(O)cc2=O)[C@@H]1O (relative stereo) [SR 44 793, trans-6-Cyano-4-(I,2-dihydro-4-hydroxy-2-oxopyrid-1-yl)-2,2-dimethylchroman-3-ol] | 5.57 | 22 ± 2 mm of mercury | 50 ± 9 mm of mercury | at least 5 times | Maximum decrease in mean blood pressure (±s.e.) ([2]; 0.06 mg/kg p.o.): 26 ± 3 mm of mercury; duration of action compared with Product A [2]: longer duration of action than Product A; antiarrhythmic activity (reducing the number of extrasystoles or restoring a sinus rhythm) (Vigilant Dogs; between 0.1 and 0.5 mg/kg): substantial antiarrhythmic activity |
| 8.05 | ≥ 7.47 | CC1(C)Oc2ccc(C#N)cc2[C@@H](n2nc(O)ccc2=O)[C@@H]1O (relative stereo) [SR 44 994, trans-6-Cyano-4-(I,6-dihydro-3-hydroxy-6-oxopyridazin-1-yl)-2,2-dimethylchroman-3-ol] | 5.40 | 14 ± 0 mm of mercury | 37 ± 4 mm of mercury | at least 5 times | duration of action compared with Product A [2]: longer duration of action than Product A |
| 7.59 | ≥ 7.47 | CC1(C)Oc2ccc(C#N)cc2[C@@H](n2ccc(Cl)cc2=O)[C@@H]1O (relative stereo) [SR 45 012] |  |  |  | at least 5 times |  |
| 7.11 |  | CC1(C)Oc2ccc(C#N)cc2[C@@H](n2ccncc2=O)[C@@H]1O (relative stereo) [SR 45 067] |  |  |  |  |  |
| 7.10 |  | Cc1ccn([C@@H]2c3cc(C#N)ccc3OC(C)(C)[C@H]2O)c(=O)c1 (relative stereo) [SR 45 135] |  |  |  |  |  |
| 7.24 |  | Cc1cc(O)nn([C@@H]2c3cc(C#N)ccc3OC(C)(C)[C@H]2O)c1=O (relative stereo) [SR 45 209, trans-6-Cyano-4-(I,6-dihydro-3-hydroxy-5-methyl-6-oxopyridazin-1-yl)-2,2-dimethylchroman-3-ol] |  |  |  |  |  |
| 7.70 | ≥ 7.47 | Cc1cc(=O)n([C@@H]2c3cc(C#N)ccc3OC(C)(C)[C@H]2O)nc1O (relative stereo) [SR 45 218, trans-6-Cyano-4-(I,6-dihydro-3-hydroxy-4-methyl-6-oxopyridazin-1-yl)-2,2-dimethylchroman-3-ol] |  |  |  | at least 5 times |  |
| 7.06 |  | Cc1ccc(=O)n([C@@H]2c3cc(C#N)ccc3OC(C)(C)[C@H]2O)n1 (relative stereo) [SR 45 225, trans-6-Cyano-4-(I,6-dihydro-3-methyl-6-oxopyridazin-1-yl)-2,2-dimethylchroman-3-ol] |  |  |  |  |  |
| 7.30 |  | CC1(C)Oc2ccc(C#N)cc2[C@@H](n2ccc(F)cc2=O)[C@@H]1O (relative stereo) [SR 45 311, trans-6-Cyano-4-(1,2-dihydro-4-fluoro-2-oxopyrid-1-yl)-2,2-dimethylchroman-3-ol] |  |  |  |  |  |

| Compound | pIC50 (Isolated Rat Portal Vein; [3]) | pIC50 (Isolated Rat Portal Vein; [4]) | pIC50 [1] | Maximum decrease in mean blood pressure (±s.e.) ([2]; 0.03 mg/kg p.o.) | Maximum decrease in mean blood pressure (±s.e.) ([2]; 0.10 mg/kg p.o.) | times more active than Product A (Isolated Rat Portal Vein) | also measured |
| --- | --- | --- | --- | --- | --- | --- | --- |
| CC1(C)Oc2ccc(C#N)cc2[C@@H](N2CCCC2=O)[C@@H]1O (relative stereo) [Product A, trans-6-Cyano-4-(2-oxopyrrolidin-1-yl)-2,2-dimethylchroman-3-ol, reference compound] | 7.17 |  | 4.80 | 16 ± 5 mm of mercury | 30 ± 10 mm of mercury |  | acute toxicity: survival / death of the animals (mice): all 10 animals died |
| CC1(C)Oc2ccc(C#N)cc2[C@@H](n2ccccc2=O)[C@@H]1O (relative stereo) [SR 44 709, trans-6-Cyano-4-(I,2-dihydro-2-oxopyrid-1-yl)2,2-dimethylchroman-3-ol] | 7.05 |  | 4.70 |  | 39 ± 12 mm of mercury |  | acute toxicity: survival / death of the animals (mice): all the animals survived; Maximum decrease in mean blood pressure (±s.e.) ([2]; 0.06 mg/kg p.o.): 21 ± 5 mm of mercury; antiarrhythmic activity (reducing the number of extrasystoles or restoring a sinus rhythm) (Vigilant Dogs; 1 mg/kg): substantial antiarrhythmic activity |
